# Laboratory results published in PubChem BioAssay AID602459 (Sanford-Burnham Center for Chemical Genomics, 2012).
# Target: Neurotensin receptor type 1 (Homo sapiens) (UniProt P30989)
# Experiment: NTR1 agonist-evoked calcium mobilization, SAR follow-up, cell-based, fluorescence, calcium flux, dose response (AID 602459)
# Details: NTR1-expressing cells, agonist mode
# Sequence of Neurotensin receptor type 1 (Homo sapiens) (P30989 whole entry, looked up): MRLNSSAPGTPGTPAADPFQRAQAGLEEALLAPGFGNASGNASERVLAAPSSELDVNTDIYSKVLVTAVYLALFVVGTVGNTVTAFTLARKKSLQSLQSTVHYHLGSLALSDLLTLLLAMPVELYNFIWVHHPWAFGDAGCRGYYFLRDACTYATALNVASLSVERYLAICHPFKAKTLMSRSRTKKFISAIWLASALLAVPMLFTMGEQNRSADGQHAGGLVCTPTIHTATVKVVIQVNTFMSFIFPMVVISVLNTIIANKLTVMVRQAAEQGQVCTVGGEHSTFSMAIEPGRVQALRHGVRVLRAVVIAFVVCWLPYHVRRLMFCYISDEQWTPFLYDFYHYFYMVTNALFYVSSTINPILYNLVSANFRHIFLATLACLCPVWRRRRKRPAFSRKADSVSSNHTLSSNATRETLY
row,Compound,EC50
1,COc1cccc(OC)c1-c1cc(C(=O)N[C@@H](CC(C)C)C(=O)O)nn1-c1ccnc2cc(Cl)ccc12,< 156 nM
2,COc1cccc(OC)c1-c1nc(C(=O)N[C@@H](CC(C)C)C(=O)O)cn1-c1ccnc2cc(Cl)ccc12,298 nM
3,COc1cc2c3nnc(-c4ccc(F)cc4)c-3cn(Cc3cccc(C)c3)c2cc1OC,1500 nM
